The subject of one assay is γH2AX foci. The experiment in a line: Immunofluorescence DSB repair kinetics, γH2AX foci. The class given is cell-based, Human. As to the method:
(§1) NSCLCs were seeded onto Lab-Tek II Chamber Slides (Thermo Fisher) and 24 hours later pretreated with JIB-04 or DMSO for 4 h. Then cells were exposed to a total dose of 2 Gy (γH2AX and 53BP1) or 10 Gy (RAD-51 and DNAPKcs p-T2609) radiation. For knockdown and overexpression experiments H1299 cells were transfected using the Amaxa Nucleofector; program X-005. Specifically, 3×10^6 were transfected with siRNA duplexes targeting JMJD2A, JMJD2B, Jarid1A, Jarid1b, scrambled siRNA (250 nM final concentration) or expression vectors pCMVHA-JMJD2A, pCMVHA-JMJD2B, pCMVHA-Jarid1A, pCMVHA-Jarid1B, PC-2 for 72 hours, followed by quantification of expression or irradiation. Then, cells were fixed in 4% formaldehyde/PBS for 15 min, permeabilized with 0.5% Triton X-100 for 15 min on ice, and blocked with 5% bovine serum albumin in PBS for 1 h. The slides were incubated with an antibody against phospho-Histone γH2AX (1:1000, 3 h at room temperature), 53BP1 (1:500, 3 h at room temperature), Rad-51 (1:500, 48 hs 4° C.) or DNAPKcs p-T2609 (1:500, 48 hs 4° C.). Alexa Fluor 488-conjugated goat anti-Rabbit, […] goat anti-mouse or rhodamine red-conjugated goat anti-mouse secondaries antibodies were used (1:1000, 1 h at room temperature). Slides were mounted in a Vectashield mounting medium containing 4′,6-diamidino-2-phenylindole (DAPI). Cells were analyzed on a Zeiss upright fluorescent microscope.

In another assay the test system is H1355 T16. The experiment in a line: MTS cell viability assay, H1355 T16 resistant variant vs H1355 Parental. The assay is classed as cell-based, human. The note with it: H1355 T16 vs H1355 Parental. As to the method:
(§2) NSCLC lines were treated with paclitaxel+carboplatin combination, given in a ˜2:3 wt/wt ratio, to mirror the clinical dosage values of ˜225 mg/m2 and ˜330 mg/m2, paclitaxel and carboplatin respectively. Note that considering the molecular weights of the two drugs, this translates to approximately a 1 to 3.4 molar ratio. Drugs were given in cycles, following a drug on/drug off treatment scheme. Each cycle consisted of 4-5 days of drug treatment and drug-free culturing for about 1-2 weeks or more to allow the surviving cells to repopulate the plate. […] Untreated parental cells were simultaneously maintained at all times for comparison. Cell viability was assessed in 96-well plates using standard MTS assays (Promega). Treatment duration in MTS assays was 4 days. Drugs were tested in two- or four-fold serial dilutions, totaling 8 different drug concentrations, with 8 replicates per concentration. Response was validated in multiple replicate plates (n≥3).
(§3) Cell viability was assessed by standard MTS assays using Promega's CellTiter reagents. Eight drug concentrations given as two- or four-fold dilutions were tested for each chemotherapeutic agent. In addition, each experiment contained eight replicates per concentration and the entire assay was performed in multiple replicates (n≥3).

The test system of assay [1] is pro-apoptotic/anti-proliferative genes and proliferative/oncogenic genes. The experiment in a line: qRT-PCR of pro-apoptotic and proliferative genes in treated H1299 T18 cells. The assay is classed as cell-based, human. Conditions: 24 h; JIB-04 0.2 μM or GSK-J4 1 μM. From the text:
Total RNA was isolated using RNeasy Plus Mini kit (Qiagen) and cDNA was generated using iScript cDNA synthesis kit (BioRad). For epigenetic enzymes, transcripts were detected by SYBR Green chemistry in real time quantitative PCR assays using validated primers. TBP and GAPDH were used as endogenous controls. […] For all non-epigenetic transcripts, TaqMan probes (Life Technologies) were utilized in multiplex with GAPDH internal reference gene. Additionally, a reference sample containing pooled RNA from normal human and tumor tissues (Stratagene) was used. PCR reactions were run using the ABI 7300 Real-time PCR System and analyzed with the included software. The comparative CT method was used to compute relative mRNA expression.

In a further assay the test system is H1299 T18. The experiment in a line: MTS cell viability assay, H1299 T18 resistant variant vs H1299 Parental. The assay is classed as cell-based, human. Conditions: H1299 T18 vs H1299 Parental. The protocol:
as §2, §3
Background: Formazan colour is commonly taken as a measure of viable cells.

Assay [2] relates to H1299 T18 chemo-resistant cells. The experiment in a line: Colony formation, combination with paclitaxel+carboplatin. The assay is classed as cell-based, human. The note with it: positive ΔBliss. As to the method:
All statistical tests including two-way ANOVA with Sidak's multiple comparisons test, one-way ANOVA with Dunnett's multiple comparisontest, post-test for linear trend and unpaired t-tests were performed using GraphPad Prism 6.00. P values are represented as *P<0.05, **P<0.01, ***P<0.001 and ****P<0.0001. For drug treatments, dose response curves and IC50 values were calculated using GraphPad Prism or in-house DIVISA (Database of InVItro Sensitivity Assays; L. Girard). For drug combination in colony formation, delta Bliss excess was calculated as shown previously (Wilson et al., 2014). Bliss expectation was calculated as A+B−(A×B), where A and B denote the fractional responses from drugs A and B given individually. The difference between Bliss expectation and observed response from combination of drugs A and B at the same doses is the delta Bliss excess.
400 cells were seeded per well in six well plates and treated with various drug concentrations the next day. After 2-3 weeks, colonies were stained with 0.5% crystal violet, 3% formaldehyde solution and counted both manually and automatically using Quantity One image analysis software (Bio-Rad).

The test system of the next assay is 53BP1 foci. The experiment in a line: Immunofluorescence DSB repair kinetics, 53BP1 foci. The class given is cell-based, Human. Conditions: for 53BP1 foci resolution: H1299 and A549, 4 h pretreatment, then IR. As to the method:
as §1

The next assay concerns H1299 T18 cells. The experiment in a line: Microarray gene expression after 24 h treatment, H1299 T18 cells. The assay is classed as cell-based, human. Conditions: for expression difference of top up-regulated gene / gene expression changes (total probes): 24 h; for expression difference of top up-regulated gene / gene expression changes (total probes) / Illumina probes reversed in expression / genes reversed in expression: 0.2 μM JIB-04 or 1 μM GSK-J4; for gene expression changes (total probes): fold changes ≥1.5, P ≤0.05; for Illumina probes reversed in expression / genes reversed in expression: reversal of changes acquired with taxane-platin resistance. As to the method:
Gene expression profiling was performed using Illumina HumanWG-6 V3 BeadArrays (for NSCLC patient tumors) or Illumina HumanHT-12 V4 BeadArrays (for cell lines and xenografts). […] Data were pre-processed using the R package mbcb for background correction (Ding et al., 2008), then log-transformed and quantile-normalized with the R package preprocessCore or using in-house MATRIX software ([…]). Microarray data can be found under GEO accession GSE77209. Log ratios, unpaired t-test p values and color-coded heat maps were obtained using MATRIX. For comparisons involving progressively resistant cell line series, analyses were performed using R package by fitting linear regression model on gene expression data against the log transformed IC50 values as measures of drug response. We fitted beta-uniform mixture model to a set of p-values using the R package ClassComparison. […] For xenograft data, differential gene expression analysis was performed by student's t-test. Using 35 gene signature, unsupervised hierarchical clustering (Eisen et al., 1998) was performed to separate neoadjuvant chemotherapy treated patients into two groups. Clustering was based on Euclidean distance matrix and maximum linkage method. Kaplan-Meier survival analysis and multivariate Cox regression were performed by R survival package and replotted using Graphpad Prism 6.00 (GraphPad Software, La Jolla, Calif. USA). R code is provided in […] report.

[3] abbreviates: SR = [IC50 of Parental]/[IC50 of Resistant].

Results on two compounds are retold here after patent US11497740B2, “Use of Jumonji C demethylase inhibitors for the treatment and prevention of chemotherapy resistance and radioresistance in cancer” (THE BOARD OF REGENTS OF THE UNIVERSITY OF TEXAS SYSTEM, priority 2016, dated 2022).

SMILES strings stand for the structures.

As for `CCOC(=O)CCNc1cc(N2CCc3ccccc3CC2)nc(-c2ccccn2)n1` [GSK-J4], the “defects in γH2AX foci resolution” value in the assay with γH2AX foci (H1299 and A549, 4 h pretreatment, then IR) was “not observed”. Besides, the “sensitivity of resistant variant compared to parental cells” value (“sensitivity … compared to parental cells” for short) in the assay on H1355 T16 was “higher sensitivity”. In assay [1], the pro-apoptotic/anti-proliferative gene expression entry is “up-regulated” and the proliferative/oncogenic gene expression entry is on record as “downregulated”. Besides, the “sensitivity … compared to parental cells” value in the assay on H1299 T18 is on record as “higher sensitivity”. In addition, the “colony formation in combination with paclitaxel+carboplatin” value in assay [2] is reported as “synergistic inhibition of colony formation”. Besides, in the assay on 53BP1 foci, the 53BP1 foci resolution entry is “not observed”. Moreover, in the assay with H1299 T18 cells, the “expression difference of top up-regulated gene” value is reported as about 25 fold, the “gene expression changes (total probes)” value is recorded as 710 probes, the “Illumina probes reversed in expression” value was determined as 110 probes and the “genes reversed in expression” value came out at 108 genes.

Regarding `Clc1ccc(N/N=C(\c2ccccc2)c2ccccn2)nc1` [JIB-04], the “γH2AX foci remaining unresolved at late time points” value with γH2AX foci (H1299 and A549, 4 h pretreatment with colony formation IC50 dose, then IR) is over 30%. In addition, the “γH2AX foci formation and resolution” value with γH2AX foci (normal HBEC30KT cells, 500 nM JIB-04, 2 Gy) was “no defects”. In addition, the γH2AX foci resolution result in the assay with γH2AX foci (prostate cancer cell line LNCap, JIB-04 and IR, data not shown) is reported as “defects in γH2AX foci resolution”. In addition, in the assay on H1355 T16, the “sensitivity … compared to parental cells” value is given as “higher sensitivity”. Further, the “H1355 T16 SR (Selectivity Ratio)” value in the assay on H1355 T16 (setting [3]) is given as 2.8. For the same compound, in assay [1], the pro-apoptotic/anti-proliferative gene expression entry is reported as “up-regulated” and the proliferative/oncogenic gene expression result is listed as “downregulated”. Also, in the assay with H1299 T18, the “sensitivity … compared to parental cells” value is on record as “several-fold hyper-sensitized”. Also, in the assay on H1299 T18 (setting [3]), the “H1299 T18 SR (Selectivity Ratio)” value was determined as 20.3. Moreover, the “colony formation in combination with paclitaxel+carboplatin” value in assay [2] is reported as “synergistic inhibition of colony formation”. Moreover, the 53BP1 foci resolution result in the assay on 53BP1 foci was “defective”. Moreover, the “53BP1 foci formation and resolution” value in the assay with 53BP1 foci (HCC-95 cells, 35 nM JIB-04 4 h, 2 Gy) was “delayed 53BP1 foci formation and resolution”. In the assay with H1299 T18 cells, the “expression difference of top up-regulated gene” value is recorded as about 16 fold, the “gene expression changes (total probes)” value is listed as 1469 probes, the “Illumina probes reversed in expression” value is listed as “About 195 probes” and the “genes reversed in expression” value was 187 genes. Also, in the assay on H1299 T18 cells (LEAP2 for JIB-04, TAF9B for GSK-J4), the “top reversed down-regulated gene, fold change (down)” value is reported as about 5 fold. In addition, the “top reversed up-regulated gene, fold change (up)” value with H1299 T18 cells (YPEL2 for JIB-04, BNIP3 for GSK-J4) is about 16 fold.
